Source: ChEMBL document CHEMBL3880427, “P70 S6 kinase inhibitors” (2012)

What was measured:
Assay type in all cases: functional, HCT-116
[1] = Antitumor activity against human HCT116 cells xenografted in athymic nude mouse assessed as tumor volume at 30 mg/kg, po bid administered for 21 days measured on day 20 post last dose (reference value: 287.1 +/- 31.9 mm'3)
[2] = Antitumor activity against human HCT116 cells xenografted in athymic nude mouse assessed as tumor volume at 60 mg/kg, po bid administered for 21 days measured on day 20 post last dose (reference value: 287.1 +/- 31.9 mm'3)
[3] = Antitumor activity against human HCT116 cells xenografted in athymic nude mouse assessed as tumor volume at 60 mg/kg, po bid administered for 21 days measured on day 13 post last dose (reference value: 100.9 +/- 13.7 mm'3)
[4] = Antitumor activity against human HCT116 cells xenografted in athymic nude mouse assessed as tumor volume at 60 mg/kg, po qd administered for 21 days measured on day 20 post last dose (reference value: 287.1 +/- 31.9 mm'3)
[5] = Antitumor activity against human HCT116 cells xenografted in athymic nude mouse assessed as tumor volume at 30 mg/kg, po bid administered for 21 days measured on day 8 post last dose (reference value: 38.5 +/- 4.1 mm'3)
[6] = Antitumor activity against human HCT116 cells xenografted in athymic nude mouse assessed as tumor volume at 60 mg/kg, po qd administered for 21 days measured on day 8 post last dose (reference value: 38.5 +/- 4.1 mm'3)
[7] = Antitumor activity against human HCT116 cells xenografted in athymic nude mouse assessed as tumor volume at 60 mg/kg, po bid administered for 21 days measured on day 23 post last dose (reference value: 402.2 +/- 43.1 mm'3)
[8] = Antitumor activity against human HCT116 cells xenografted in athymic nude mouse assessed as tumor volume at 60 mg/kg, po bid administered for 21 days measured on day 27 post last dose (Rvb= 545 +/- 41.1 mm'3)
[9] = Antitumor activity against human HCT116 cells xenografted in athymic nude mouse assessed as tumor volume at 30 mg/kg, po bid administered for 21 days measured on day 23 post last dose (reference value: 402.2 +/- 43.1 mm'3)
[10] = Antitumor activity against human HCT116 cells xenografted in athymic nude mouse assessed as tumor volume at 30 mg/kg, po bid administered for 21 days measured on day 13 post last dose (reference value: 100.9 +/- 13.7 mm'3)
[11] = Antitumor activity against human HCT116 cells xenografted in athymic nude mouse assessed as tumor volume at 60 mg/kg, po bid administered for 21 days measured on day 8 post last dose (reference value: 38.5 +/- 4.1 mm'3)
[12] = Antitumor activity against human HCT116 cells xenografted in athymic nude mouse assessed as tumor volume at 60 mg/kg, po qd administered for 21 days measured on day 13 post last dose (reference value: 100.9 +/- 13.7 mm'3)
[13] = Antitumor activity against human HCT116 cells xenografted in athymic nude mouse assessed as tumor volume at 30 mg/kg, po bid administered for 21 days measured on day 16 post last dose (reference value: 163.1 +/- 25.7 mm'3)
[14] = Antitumor activity against human HCT116 cells xenografted in athymic nude mouse assessed as tumor volume at 60 mg/kg, po qd administered for 21 days measured on day 27 post last dose (Rvb= 545 +/- 41.1 mm'3)
[15] = Antitumor activity against human HCT116 cells xenografted in athymic nude mouse assessed as tumor volume at 60 mg/kg, po bid administered for 21 days measured on day 16 post last dose (reference value: 163.1 +/- 25.7 mm'3)
[16] = Antitumor activity against human HCT116 cells xenografted in athymic nude mouse assessed as tumor volume at 60 mg/kg, po qd administered for 21 days measured on day 23 post last dose (reference value: 402.2 +/- 43.1 mm'3)
[17] = Antitumor activity against human HCT116 cells xenografted in athymic nude mouse assessed as tumor volume at 60 mg/kg, po qd administered for 21 days measured on day 16 post last dose (reference value: 163.1 +/- 25.7 mm'3)
[18] = Antitumor activity against human HCT116 cells xenografted in athymic nude mouse assessed as tumor volume at 30 mg/kg, po bid administered for 21 days measured on day 27 post last dose (Rvb= 545 +/- 41.1 mm'3)

In the case of Cl.FC(F)(F)c1cccc(-c2c[nH]c(C3CCN(c4ncnc5[nH]ncc45)CC3)n2)c1, the Activity [1] is reported as 134.6 mm3, the Activity [2] is reported as 139 mm3 and the Activity [3] is reported as 42.1 mm3. It also gave an Activity [4] of 142.5 mm3, an Activity [5] of 36.5 mm3 and an Activity [6] of 30.6 mm3. For the same molecule, the Activity [7] was 188.4 mm3, the Activity [8] was 280 mm3 and the Activity [9] was 192.7 mm3. It also gave an Activity [10] of 58.7 mm3, an Activity [11] of 28.8 mm3 and an Activity [12] of 57.8 mm3. The Activity [13] was 90.9 mm3, the Activity [14] was 252.7 mm3 and the Activity [15] was 72.1 mm3. The Activity [16] was 194.5 mm3, the Activity [17] was 85 mm3 and the Activity [18] was 296.3 mm3.
